Measurements published in patent US10335409B2 (priority 2012, dated 2019).
pEC50: −log10 of the molar value. Read-outs that look alike come from different tables or passages of the source.

Key:
Assay type in all cases: cell-based, hepatitis C virus
[1] = system: genotype 1a (H77) stable HCV replicon in Huh-7-derived cells; assay: Stable subgenomic HCV replicon EC50, genotype 1a (Renilla luciferase); settings: Hepatitis C virus, stable replicon genotype 1a, 72 h, read-out: EC50 1A RLUC
Description: (§1) Antiviral potency (EC50) was determined in both stable subgenomic HCV replicon cell lines and transient-transfected HCV replicon cells. The term half maximal effective concentration (EC50) refers to the concentration of a drug which induces a response halfway between the baseline and maximum after the exposure time specified below.
(§2) Stable subgenomic HCV replicons for genotype 1a, 1b, 2a, 3a, and 4a were established in Huh-7-derived cells as described by Lohmann et al (Lohmann V, Korner F, Koch J, et al Replication of subgenomic hepatitis C virus RNAs in a hepatoma cell line. Science 1999; 285:119-3) Each stable cell line contains a bicistronic HCV replicon that encodes a humanized Renilla luciferase (hRLuc) reporter gene fused to a selectable neomycin-resistance gene, followed by an EMCV IRES and the NS3-NS5B coding region of HCV. […] Luciferase activity was measured as a marker for intracellular HCV replication levels.
(§3) The genotype 1a stable replicon was derived from the H77 HCV strain and contained adaptive mutations P1496L and S2204I. The genotype 1b stable replicon was derived from the Con1 HCV strain and contained adaptive mutations E1202G, T1280I and K1846T. […] The genotype 3a stable replicon was derived from the S52 HCV strain and contained adaptive mutations P1121L, A1198T and S2210I (equivalent to S2204I in genotype 1). The genotype 4a stable replicon was derived from the ED43 HCV strain and contained adaptive mutations Q1691R and S2204I. All replicon cell lines were propagated in Huh-7-derived cells and maintained in Dulbecco's modified Eagle's Medium (DMEM) supplemented with 10% fetal bovine serum (FBS) and 0.5 mg/mL G418.
(§4) To perform EC50 assays, cells from each HCV replicon were dispensed into 384-well plates. Compounds were dissolved in DMSO at a concentration of 10 mM and diluted in DMSO using an automated pipetting instrument. Three-fold serially diluted compounds were directly added to the cells using an automated instrument. […] Seventy-two hours later, cells were lysed and Renilla luciferase activity were quantified as recommended by the manufacturer (Promega-Madison, Wis.). Non-linear regression was performed to calculate EC50 values.

[2] = system: genotype 4a (ED43) stable HCV replicon in Huh-7-derived cells; assay: Stable subgenomic HCV replicon EC50, genotype 4a (Renilla luciferase); settings: Hepatitis C virus, 72 h, read-out: EC50 4A RLUC
Description: as §1, §2, §3, §4

[3] = system: genotype 1a (H77) wild type transient HCV replicon in Huh-7-derived cells; assay: Transient-transfected HCV replicon EC50, genotype 1a wild type; settings: Hepatitis C virus, 72 h, read-out: EC50 1A WT
[4] = system: genotype 2a (JFH-1) stable HCV replicon in Huh-7-derived cells; assay: Stable subgenomic HCV replicon EC50, genotype 2a (Renilla luciferase); settings: Hepatitis C virus, stable replicon genotype 2a, 72 h, read-out: EC50 2A RLUC
Description: as §1, §2, §3, §4

[5] = system: genotype 1b (Con1) stable HCV replicon in Huh-7-derived cells; assay: Stable subgenomic HCV replicon EC50, genotype 1b (Renilla luciferase); settings: Hepatitis C virus, stable replicon genotype 1b, 72 h, read-out: EC50 1B RLUC
Description: as §1, §2, §3, §4

[6] = system: genotype 1b NS3/4a protease inhibitor resistant variant D168A transient HCV replicon in Huh-7-derived cells; assay: Transient-transfected HCV replicon EC50, genotype 1b D168A; settings: Hepatitis C virus, 72 h, read-out: EC50 1B D168A, transient-transfected replicon genotype 1b D168A resistant variant, 72 h
[7] = system: genotype 1b (Con1) wild type transient HCV replicon in Huh-7-derived cells; assay: Transient-transfected HCV replicon EC50, genotype 1b wild type; settings: Hepatitis C virus, 72 h, read-out: EC50 1B WT
[8] = system: genotype 3a (S52) stable HCV replicon in Huh-7-derived cells; assay: Stable subgenomic HCV replicon EC50, genotype 3a (Renilla luciferase); settings: Hepatitis C virus, 72 h, read-out: EC50 3A RLUC
Description: as §1, §2, §3, §4

[9] = system: genotype 1a NS3/4a protease inhibitor resistant variant R155K transient HCV replicon in Huh-7-derived cells; assay: Transient-transfected HCV replicon EC50, genotype 1a R155K; settings: Hepatitis C virus, 72 h, read-out: EC50 1A R155K, transient-transfected replicon genotype 1a R155K resistant variant, 72 h
[10] = transient-transfected replicon genotype 1a wild type
[11] = transient-transfected replicon genotype 1b wild type

SMILES	pEC50 [1]	pEC50 [2]	pEC50 [3, 10]	pEC50 [4]	pEC50 [5]	pEC50 [6]	pEC50 [7, 11]	pEC50 [8]	pEC50 [9]	pEC50 [3]	pEC50 [7]
COc1ccc2nc3c(nc2c1)O[C@H]1CN(C(=O)[C@H](C(C)(C)C)NC(=O)O[C@@H]2C[C@H]2CCCCC3)[C@H](C(=O)N[C@]2(C(=O)NS(=O)(=O)C3CC3)C[C@H]2CCF)[C@@H]1C [Example 22, (1aR,5S,8S,9S,10R,22aR)-5-tert-butyl-N-[(1R,25)-1-[(cyclopropylsulfonyl)carbamoyl]-2-(2-fluoroethyl)cyclopropyl]-14-methoxy-9-methyl-3,6-dioxo-1,1a,3,4,5,6,9,10,18,19,20,21,22,22a-tetradecahydro-8H-7,10-methanocyclopropa[18,19][1,10,3,6]dioxadiazacyclononadecino[11,12-b]quinoxaline-8-carboxamide]	7.82	7.96	8.07	7.57	8.12	6.62	8.59	6.14	7.32	–	–
CC[C@@H]1[C@@H]2CN(C(=O)[C@H](C(C)(C)C)NC(=O)O[C@@H]3C[C@H]3CCCCCc3nc4ccc(OC)cc4nc3O2)[C@@H]1C(=O)N[C@]1(C(=O)NS(=O)(=O)C2CC2)C[C@H]1CC [Example 3, (1aR,5S,8S,9S,10R,22aR)-5-tert-butyl-N-{(1R,2R)-1-[(cyclopropylsulfonyl)carbamoyl]-2-ethylcyclopropyl}-9-ethyl-14-methoxy-3,6-dioxo-1,1a,3,4,5,6,9,10,18,19,20,21,22,22a-tetradecahydro-8H-7,10-methanocyclopropa[18,19][1,10,3,6]dioxadiazacyclononadecino[11,12-b]quinoxaline-8-carboxamide]	7.93	8.00	8.18	7.55	8.01	6.89	8.46	6.26	7.49	–	–
CC[C@@H]1[C@@H]2CN(C(=O)[C@H](C(C)(C)C)NC(=O)O[C@@]3(C)C[C@@H]3CCCCCc3nc4ccc(OC)cc4nc3O2)[C@@H]1C(=O)N[C@]1(C(=O)NS(=O)(=O)C2(C)CC2)C[C@H]1C(F)F [Example 8, (1aS,5S,8S,9S,10R,22aS)-5-tert-butyl-N-[(1R,2R)-2-(difluoromethyl)-1-{[(1-methylcyclopropyl)sulfonyl]carbamoyl}cyclopropyl]-9-ethyl-14-methoxy-1a-methyl-3,6-dioxo-1,1a,3,4,5,6,9,10,18,19,20,21,22,22a-tetradecahydro-8H-7,10-methanocyclopropa[18,19][1,10,3,6] dioxadiazacyclononadecino[11,12-b]quinoxaline-8-carboxamide]	7.80	7.89	8.06	7.70	8.07	7.05	8.32	6.33	7.55	–	–
CC[C@@H]1[C@@H]2CN(C(=O)[C@H](C(C)(C)C)NC(=O)O[C@@H]3C[C@H]3CCCCCc3nc4ccc(OC)cc4nc3O2)[C@@H]1C(=O)N[C@]1(C(=O)NS(=O)(=O)C2CC2)C[C@H]1C(F)F [Example 2, (1aR,5S,8S,9S,10R,22aR)-5-tert-butyl-N-[(1R,2R)-1-[(cyclopropylsulfonyl)carbamoyl]-2-(difluoromethyl)cyclopropyl]-9-ethyl-14-methoxy-3,6-dioxo-1,1a,3,4,5,6,9,10,18,19,20,21,22,22a-tetradecahydro-8H-7,10-methanocyclopropa[18,19][1,10,3,6]dioxadiazacyclononadecino[11,12-b]quinoxaline-8-carboxamide]	8.40	8.57	8.62	8.41	8.51	7.48	9.00	7.11	8.15	–	–
COc1ccc2nc3c(nc2c1)O[C@H]1CN(C(=O)[C@H](C(C)(C)C)NC(=O)O[C@@H]2C[C@H]2CCCCC3)[C@H](C(=O)N[C@]2(C(=O)NS(=O)(=O)C3(C)CC3)C[C@H]2CC(F)F)[C@@H]1C [Example 25, (1aR,5S,8S,9S,10R,22aR)-5-tert-butyl-N-[(1R,2S)-2-(2,2-difluoroethyl)-1-{[(1-methylcyclopropyl)sulfonyl]carbamoyl}cyclopropyl]-14-methoxy-9-methyl-3,6-dioxo-1,1a,3,4,5,6,9,10,18,19,20,21,22,22a-tetradecahydro-8H-7,10-methanocyclopropa[18,19][1,10,3,6]dioxadiazacyclononadecino[11,12-b]quinoxaline-8-carboxamide]	8.06	8.15	8.36	7.89	8.20	6.94	8.44	6.39	7.77	–	–
COc1ccc2nc3c(nc2c1)O[C@H]1CN(C(=O)[C@H](C(C)(C)C)NC(=O)O[C@@H]2C[C@H]2CCCCC3)[C@H](C(=O)N[C@]2(C(=O)NS(=O)(=O)C3CC3)C[C@H]2C(F)F)[C@@H]1C [Example 19, (1aR,5S,8S,9S,10R,22aR)-5-tert-butyl-N-[(1R,2R)-1-[(cyclopropylsulfonyl)carbamoyl]-2-(difluoromethyl)cyclopropyl]-14-methoxy-9-methyl-3,6-dioxo-1,1a,3,4,5,6,9,10,18,19,20,21,22,22a-tetradecahydro-8H-7,10-methanocyclopropa[18,19][1,10,3,6]dioxadiazacyclononadecino[11,12-b]quinoxaline-8-carboxamide]	8.40	8.51	–	8.34	8.59	7.55	–	7.05	8.47	8.68	8.96
COc1ccc2nc3c(nc2c1)O[C@H]1CN(C(=O)[C@H](C(C)(C)C)NC(=O)O[C@@H]2C[C@H]2CCCCC3)[C@H](C(=O)N[C@]2(C(=O)NS(=O)(=O)C3(C)CC3)C[C@H]2CCF)[C@@H]1C [Example 23, (1aR,5S,8S,9S,10R,22aR)-5-tert-butyl-N-[(1R,2S)-2-(2-fluoroethyl)-1-{[(1-methylcyclopropyl)sulfonyl]carbamoyl}cyclopropyl]-14-methoxy-9-methyl-3,6-dioxo-1,1a,3,4,5,6,9,10,18,19,20,21,22,22a-tetradecahydro-8H-7,10-methanocyclopropa[18,19][1,10,3,6]dioxadiazacyclononadecino[11,12-b]quinoxaline-8-carboxamide]	7.89	8.00	8.02	7.64	8.12	6.76	8.44	6.23	7.44	–	–
COc1ccc2nc3c(nc2c1)O[C@H]1CN(C(=O)[C@H](C(C)(C)C)NC(=O)O[C@@]2(C)C[C@@H]2CCCCC3)[C@H](C(=O)N[C@]2(C(=O)NS(=O)(=O)C3(C)CC3)C[C@H]2C(F)F)[C@@H]1C [Example 45, (1aS,5S,8S,9S,10R,22aS)-5-tert-butyl-N-[(1R,2R)-2-(difluoromethyl)-1-{[(1-methylcyclopropyl)sulfonyl]carbamoyl}cyclopropyl]-14-methoxy-1a,9-dimethyl-3,6-dioxo-1,1a,3,4,5,6,9,10,18,19,20,21,22,22a-tetradecahydro-8H-7,10-methanocyclopropa[18,19][1,10,3,6]dioxadiazacyclononadecino[11,12-b]quinoxaline-8-carboxamide]	7.68	7.89	7.89	7.62	8.08	7.06	8.28	6.26	7.46	–	–
